According to ChEMBL document CHEMBL1201862, “PubChem BioAssay data set” (2004):
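Briefly, cells in 96-well plates were exposed to five compound concentrations for 48 h, and endpoints were estimated by linear interpolation. Abbreviation: GI50, concentration required for 50% inhibition of growth.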 Active and inactive are the calls of the source. Rule as the data show it: active = GI50 up to about 1.1 µM and inactive = higher.

What was measured:
Experiment in all cases: DTP human tumour cell line panel, 48 h
[1] = system: 786-0
[2] = system: A549
[3] = system: ACHN
[4] = system: BT-549
[5] = system: CAKI-1
[6] = system: CCRF-CEM
[7] = system: COLO 205
[8] = system: DU-145
[9] = system: EKVX
[10] = system: HCC 2998
[11] = system: HCT-116
[12] = system: HCT-15
[13] = system: HL-60
[14] = system: HOP-62
[15] = system: HOP-92
[16] = system: HT-29
[17] = system: K562
[18] = system: KM12
[19] = system: M14
[20] = system: MCF7
[21] = system: MDA-MB-231
[22] = system: MDA-MB-435
[23] = system: MDA-N
[24] = system: MOLT-4
[25] = system: Malme-3M
[26] = system: NCI-H226
[27] = system: NCI-H23
[28] = system: NCI-H460
[29] = system: NCI-H522
[30] = system: NCI/ADR-RES
[31] = system: OVCAR-3
[32] = system: OVCAR-4
[33] = system: OVCAR-5
[34] = system: OVCAR-8
[35] = system: PC-3
[36] = system: RPMI-8226
[37] = system: RXF 393
[38] = system: SF-268
[39] = system: SF-295
[40] = system: SK-MEL-2
[41] = system: SN12C
[42] = system: SNB-19
[43] = system: SW-620
[44] = system: T47D
[45] = system: TK-10
[46] = system: U-251
[47] = system: UACC-257
[48] = system: UO-31
[49] = system: A498
[50] = system: Hs-578T
[51] = system: IGROV-1
[52] = system: LOX IMVI
[53] = system: SF-539
[54] = system: SK-MEL-28
[55] = system: SK-MEL-5
[56] = system: SK-OV-3
[57] = system: SR
[58] = system: UACC-62
[59] = system: SNB-75

With `CC1=[N+]([O-])C(C)(C)N(N=O)C1(C)C` the GI50 [1] was > 10 µM (inactive), the GI50 [2] was > 10 µM (inactive) and the GI50 [3] was > 10 µM (inactive). The GI50 [4] was > 10 µM (inactive), the GI50 [5] was > 10 µM (inactive) and the GI50 [6] was > 10 µM (inactive). The GI50 [7] was > 10 µM (inactive), the GI50 [8] was > 10 µM (inactive) and the GI50 [9] was > 10 µM (inactive). For the same molecule, the GI50 [10] was > 10 µM (inactive), the GI50 [11] was > 10 µM (inactive) and the GI50 [12] was over 10 µM. The GI50 [13] was > 10 µM (inactive), the GI50 [14] was > 10 µM (inactive) and the GI50 [15] was > 10 µM (inactive). For the same molecule, the GI50 [16] was > 10 µM (inactive), the GI50 [17] was > 10 µM (inactive) and the GI50 [18] was > 10 µM (inactive). The GI50 [19] was > 10 µM (inactive), the GI50 [20] was > 10 µM (inactive) and the GI50 [21] was > 10 µM (inactive). The GI50 [22] was > 10 µM (inactive), the GI50 [23] was > 10 µM (inactive) and the GI50 [24] was > 10 µM (inactive). The GI50 [25] was > 10 µM (inactive), the GI50 [26] was > 10 µM (inactive) and the GI50 [27] was > 10 µM (inactive). For the same molecule, the GI50 [28] was > 10 µM (inactive), the GI50 [29] was > 10 µM (inactive) and the GI50 [30] was > 10 µM (inactive). The GI50 [31] was > 10 µM (inactive), the GI50 [32] was > 10 µM (inactive) and the GI50 [33] was > 10 µM (inactive). For the same molecule, the GI50 [34] was > 10 µM (inactive), the GI50 [35] was > 10 µM (inactive) and the GI50 [36] was > 10 µM (inactive). The GI50 [37] was > 10 µM (inactive), the GI50 [38] was > 10 µM (inactive) and the GI50 [39] was > 10 µM (inactive). The GI50 [40] was > 10 µM (inactive), the GI50 [41] was > 10 µM (inactive) and the GI50 [42] was > 10 µM (inactive). The GI50 [43] was > 10 µM (inactive), the GI50 [44] was > 10 µM (inactive) and the GI50 [45] was > 10 µM (inactive). For the same molecule, the GI50 [46] was > 10 µM (inactive), the GI50 [47] was > 10 µM (inactive) and the GI50 [48] was > 10 µM (inactive).

`O=[N+]([O-])/C(Cl)=C(\Sc1ccccc1)C(Cl)=C(Cl)Cl` was tested, and the GI50 [1] was 0.308 µM (active), the GI50 [49] was 1.72 µM (inactive) and the GI50 [2] was 0.229 µM (active). The GI50 [3] was 1.66 µM (inactive), the GI50 [5] was 1.83 µM (inactive) and the GI50 [6] was 0.296 µM (active). The GI50 [7] was 0.282 µM (active), the GI50 [8] was 1.71 µM (inactive) and the GI50 [9] was 2.04 µM (inactive). The GI50 [10] was 1.93 µM (inactive), the GI50 [11] was 0.147 µM (active) and the GI50 [12] was 0.42 µM. The GI50 [13] was 0.273 µM (active), the GI50 [14] was 2.06 µM (inactive) and the GI50 [15] was 1.91 µM (inactive). The GI50 [16] was 0.355 µM (active), the GI50 [50] was 0.562 µM (active) and the GI50 [51] was 1.28 µM (inactive). For the same molecule, the GI50 [17] was 0.294 µM (active), the GI50 [18] was 1.79 µM (inactive) and the GI50 [52] was 0.207 µM (active). The GI50 [19] was 0.188 µM (active), the GI50 [20] was 0.159 µM (active) and the GI50 [21] was 0.264 µM (active). For the same molecule, the GI50 [22] was 0.22 µM (active), the GI50 [23] was 0.288 µM (active) and the GI50 [24] was 0.348 µM (active). The GI50 [25] was 0.647 µM (active), the GI50 [26] was 2.23 µM (inactive) and the GI50 [27] was 0.473 µM (active). The GI50 [28] was 1.54 µM (inactive), the GI50 [29] was 0.26 µM (active) and the GI50 [30] was 0.216 µM (active). The GI50 [31] was 1.52 µM (inactive), the GI50 [32] was 1.49 µM (inactive) and the GI50 [33] was 1.86 µM (inactive). The GI50 [34] was 0.191 µM (active), the GI50 [35] was 2.01 µM (inactive) and the GI50 [36] was 0.242 µM (active). The GI50 [37] was 0.975 µM (active), the GI50 [38] was 1.4 µM (inactive) and the GI50 [39] was 3.43 µM (inactive). For the same molecule, the GI50 [53] was 1.56 µM (inactive), the GI50 [54] was 1.41 µM (inactive) and the GI50 [40] was 1.77 µM (inactive). For the same molecule, the GI50 [55] was 0.54 µM (active), the GI50 [56] was 4.21 µM (inactive) and the GI50 [41] was 0.373 µM (active). The GI50 [42] was 2.22 µM (inactive), the GI50 [57] was 0.292 µM (active) and the GI50 [44] was 1.28 µM (inactive). For the same molecule, the GI50 [45] was 1.8 µM (inactive), the GI50 [46] was 1.29 µM (inactive) and the GI50 [47] was 0.404 µM (active). For the same molecule, the GI50 [58] was 0.647 µM (active) and the GI50 [48] was 0.284 µM (active).

`C=Cc1ccccc1C1C(C(=O)OCC)=C(C)N=C2OC(C(=O)OC)C(=O)N21` (configuration not stated) was tested, and the GI50 [1] was > 100 µM (inactive), the GI50 [49] was > 100 µM (inactive) and the GI50 [2] was > 100 µM (inactive). For the same molecule, the GI50 [3] was > 100 µM (inactive), the GI50 [4] was > 100 µM (inactive) and the GI50 [5] was > 100 µM (inactive). The GI50 [6] was > 100 µM (inactive), the GI50 [7] was > 100 µM (inactive) and the GI50 [8] was > 100 µM (inactive). For the same molecule, the GI50 [9] was > 100 µM (inactive), the GI50 [10] was > 100 µM (inactive) and the GI50 [11] was > 100 µM (inactive). The GI50 [12] was over 100 µM, the GI50 [13] was 87.5 µM (inactive) and the GI50 [14] was > 100 µM (inactive). For the same molecule, the GI50 [15] was > 100 µM (inactive), the GI50 [16] was > 100 µM (inactive) and the GI50 [51] was > 100 µM (inactive). The GI50 [17] was > 100 µM (inactive), the GI50 [18] was > 100 µM (inactive) and the GI50 [52] was > 100 µM (inactive). The GI50 [19] was > 100 µM (inactive), the GI50 [20] was > 100 µM (inactive) and the GI50 [21] was > 100 µM (inactive). For the same molecule, the GI50 [22] was > 100 µM (inactive), the GI50 [23] was > 100 µM (inactive) and the GI50 [24] was > 100 µM (inactive). The GI50 [25] was > 100 µM (inactive), the GI50 [26] was > 100 µM (inactive) and the GI50 [27] was > 100 µM (inactive). The GI50 [28] was > 100 µM (inactive), the GI50 [29] was > 100 µM (inactive) and the GI50 [30] was > 100 µM (inactive). The GI50 [31] was > 100 µM (inactive), the GI50 [32] was > 100 µM (inactive) and the GI50 [33] was > 100 µM (inactive). The GI50 [34] was > 100 µM (inactive), the GI50 [35] was > 100 µM (inactive) and the GI50 [36] was > 100 µM (inactive). The GI50 [37] was > 100 µM (inactive), the GI50 [38] was > 100 µM (inactive) and the GI50 [39] was > 100 µM (inactive). For the same molecule, the GI50 [53] was > 100 µM (inactive), the GI50 [54] was > 100 µM (inactive) and the GI50 [40] was > 100 µM (inactive). For the same molecule, the GI50 [55] was > 100 µM (inactive), the GI50 [56] was > 100 µM (inactive) and the GI50 [41] was > 100 µM (inactive). The GI50 [42] was > 100 µM (inactive), the GI50 [59] was > 100 µM (inactive) and the GI50 [57] was > 100 µM (inactive). The GI50 [43] was > 100 µM (inactive), the GI50 [44] was > 100 µM (inactive) and the GI50 [45] was > 100 µM (inactive). The GI50 [46] was > 100 µM (inactive), the GI50 [47] was > 100 µM (inactive) and the GI50 [58] was > 100 µM (inactive). For the same molecule, the GI50 [48] was > 100 µM (inactive).
